Converted amounts (≈) assume the structure as drawn. Where two headings read alike, the source gives them in different places.
Legend:
[1] = In vitro cytotoxicity assay (MTT); type: cell-based, human; details: human
Method: (§1) In vitro cytotoxicity was determined against human embryonic kidney (HEK293T) cells. The assay was performed in 96-well treated tissue culture plates. Cells were seeded in the wells (5000 cells in 100 µL media containing RPMI1640, FBS, penicillin and streptomycin) and incubated for 24 h. Samples were then added and plates were again incubated for 48 h. MTT was then added and the plates were incubated for 4 h at 37 °C. Formazan crystals formed were dissolved in EtOH and absorbances were read at λ = 595 nm. The result was analyzed by using Prism 9 software (Graphpad, San Diego, CA, USA) to obtain IC50 values.

[2] = tested on: Staphylococcus aureus ATCC 6538; test: Agar-plate diffusion assay, S. aureus; type: cell-based; details: for Antibacterial Activity Gram-Positive S. aureus Clear Inhibition Zone: at the MID, disk diameter 6 mm; for Antibacterial Activity Gram-Positive S. aureus MID: minimum dose that induced an obvious inhibition zone (1–1.5 mm), 6 mm disk
Method: (§2) Staphylococcus aureus ATCC 6538 and Klebsiella pneumoniae were used for biological evaluation. Concentrations assayed ranged from 0.08 to 1.25 µg/disks. DMSO was used to dissolve the compounds, while vancomycin and oxacillin were used as positive controls for Staphylococcus aureus and gentamycin was used as a positive control for Klebsiella pneumoniae. The minimum inhibitory dose (MID, μg/disk) was defined as the minimum dose that induced an obvious inhibition zone (1–1.5 mm). The disk diameter was 6 mm.

Klebsiella pneumoniae = test: Agar-plate diffusion assay, K. pneumoniae; type: cell-based; details: for Antibacterial Activity Gram-Negative K. pneumoniae Clear Inhibition Zone: at the MID, disk diameter 6 mm; for Antibacterial Activity Gram-Negative K. pneumoniae MID: minimum dose that induced an obvious inhibition zone (1–1.5 mm), 6 mm disk
Method: as §2

[3] = tested on: human embryonic kidney (HEK293T) cells; test: In vitro cytotoxicity assay (MTT); type: cell-based
Method: as §1

Staphylococcus aureus = tested on: Staphylococcus aureus; parameters: method as in PMID 27399938; details: cited from earlier work
Enterococcus faecium = tested on: Enterococcus faecium; parameters: method as in PMID 27399938; details: cited from earlier work
Escherichia coli = tested on: Escherichia coli; parameters: method as in PMID 27399938; details: cited from earlier work
Pseudomonas aeruginosa = tested on: Pseudomonas aeruginosa; parameters: method as in PMID 27399938; details: cited from earlier work
Candida albicans = tested on: Candida albicans; parameters: method as in PMID 27399938; details: cited from earlier work
Bsc-1 cells = tested on: Bsc-1 cells; parameters: method as in PMID 27399938; details: cited from earlier work
[4] = Homo sapiens, HEK-293T, HEK293T cells, methylation and acetylation products, read-out: IC50 against HEK293T
[5] = HEK293T cells, MTT, 48 h, read-out: Cytotoxicity HEK293T IC50

In the case of Oc1c(Br)cc(Br)cc1Oc1c(O)c(Br)c(Br)c(Br)c1Br [Compound 1, 2,3,4,5-tetrabromo-6-(3′, 5′-dibromo-2′-hydroxyphenoxy) phenol], the IC50 at 48 h ([1]; Cytotoxicity HEK293T IC50) is reported as 16.2 ± 1.17 µM, the “Antibacterial Activity Gram-Positive S. aureus Clear Inhibition Zone” value [2] is reported as 7.17 ± 0.24 mm and the “Antibacterial Activity Gram-Positive S. aureus MID” value [2] is reported as 0.078 µg/Disk. For the same compound, the “Antibacterial Activity Gram-Negative K. pneumoniae Clear Inhibition Zone” value (Klebsiella pneumoniae) was 7.00 ± 0.00 mm and the “Antibacterial Activity Gram-Negative K. pneumoniae MID” value (Klebsiella pneumoniae) was 0.078 µg/Disk.

With COc1c(Br)c(Br)c(Br)c(Br)c1Oc1cc(Br)cc(Br)c1O [Compound 7] the IC50 [3, 4] was greater than 10 µg/mL.

Work on COc1c(Br)cc(Br)cc1Oc1c(Br)c(Br)c(Br)c(Br)c1OC [Compound 8, 2,3,4,5-tetrabromo-6-(3′,5′-dibromo-2′-methoxyphenoxy) anisole] yielded an IC50 [3, 4] greater than 10 µg/mL.

With COc1c(Br)cc(Br)cc1Oc1c(Br)cc(Br)c(Br)c1OC [Compound 9, 2,3,5-tribromo-6-(3′,5′-dibromo-2′-methoxyphenoxy) anisole] the IC50 [3, 4] was greater than 10 µg/mL.

CC(=O)Oc1c(Br)c(Br)c(Br)c(Br)c1Oc1cc(Br)cc(Br)c1O [Compound 10, 2,3,4,5-tetrabromo-6-(3′,5′-dibromo-2′-hydroxyphenoxy) phenyl acetate] showed an IC50 [3, 4] greater than 10 µg/mL.

CC(=O)Oc1c(Br)cc(Br)cc1Oc1c(Br)c(Br)c(Br)c(Br)c1OC(C)=O [Compound 11, 2,3,4,5-tetrabromo-6-(3′,5′-dibromo-2′-acetoxyphenoxy) phenyl acetate] showed an IC50 [3, 4] greater than 10 µg/mL.

Compound CC(=O)Oc1c(Br)c(Br)cc(Br)c1Oc1cc(Br)cc(Br)c1O [Compound 12, 2,3,5-tribromo-6-(3′, 5′-dibromo-2′-hydroxyphenoxy) phenyl acetate] has an IC50 [3, 4] greater than 10 µg/mL.

For CC(=O)Oc1c(Br)cc(Br)cc1Oc1c(Br)cc(Br)c(Br)c1OC(C)=O [Compound 13, 2,3,5-tribromo-6-(3′,5′-dibromo-2′-acetoxyphenoxy) phenyl acetate], the IC50 [3, 4] was greater than 10 µg/mL.

With Oc1cc(Br)cc(Br)c1Oc1cc(Br)cc(Br)c1O [Compound 16, 3,5-dibromo-6-(3′, 5′-dibromo-2′-hydroxyphenoxy) phenol] the IC50 at 48 h ([1]; Cytotoxicity HEK293T IC50) was 8.65 ± 1.11 µM, the IC50 ([3]; human, 48 h) was 8.11 µM and the “Antibacterial Activity Gram-Positive S. aureus Clear Inhibition Zone” value [2] was 7.00 ± 0.00 mm. The “Antibacterial Activity Gram-Positive S. aureus MID” value [2] was 0.078 µg/Disk, the “Antibacterial Activity Gram-Negative K. pneumoniae Clear Inhibition Zone” value (Klebsiella pneumoniae) was 7.50 ± 0.00 mm and the “Antibacterial Activity Gram-Negative K. pneumoniae MID” value (Klebsiella pneumoniae) was 0.078 µg/Disk. For the same compound, the “MIC Staphylococcus aureus” value (Staphylococcus aureus) was 1.25 to 1.6 µg/mL, the “MIC Enterococcus faecium” value (Enterococcus faecium) was 1.6 to 3.1 µg/mL and the “MIC Escherichia coli” value (Escherichia coli) was 50 µg/mL (≈ 96.6 µM). The “MIC Pseudomonas aeruginosa” value (Pseudomonas aeruginosa) was greater than 50 µg/mL, the “MIC Candida albicans” value (Candida albicans) was greater than 50 µg/mL and the “IC50 against Bsc-1 cells” value (Bsc-1 cells) was greater than 50 µg/mL.

For Oc1ccccc1Oc1ccccc1O [Compound 30, 2, 2′-oxydiphenol, reference compound], the IC50 at 48 h [1, 5] was greater than 198 µM.

Work on COc1cccc2c1C(=O)c1c(O)c3c(c(O)c1C2=O)C[C@@](O)(C(=O)CO)C[C@@H]3O[C@H]1C[C@H](N)[C@H](O)[C@H](C)O1 [Doxorubicin, reference compound] yielded an IC50 at 48 h [1, 5] of 0.22 ± 0.09 µM.

In the case of Cc1onc(-c2ccccc2)c1C(=O)N[C@@H]1C(=O)N2[C@@H]1SC(C)(C)[C@@H]2C(=O)O [Oxacillin], the “Antibacterial Activity Gram-Positive S. aureus Clear Inhibition Zone” value [2] is reported as 11.33 ± 0.24 mm, the “Antibacterial Activity Gram-Positive S. aureus MID” value [2] is reported as less than 0.078 µg/Disk and the “Antibacterial Activity Gram-Negative K. pneumoniae Clear Inhibition Zone” value (Klebsiella pneumoniae) is reported as 7.33 ± 0.24 mm. The “Antibacterial Activity Gram-Negative K. pneumoniae MID” value (Klebsiella pneumoniae) was 0.078 µg/Disk.

In the case of CN[C@H](CC(C)C)C(=O)N[C@H]1C(=O)N[C@@H](CC(N)=O)C(=O)N[C@H]2C(=O)N[C@H]3C(=O)N[C@H](C(=O)N[C@H](C(=O)O)c4cc(O)cc(O)c4-c4cc3ccc4O)[C@H](O)c3ccc(c(Cl)c3)Oc3cc2cc(c3O[C@@H]2O[C@H](CO)[C@@H](O)[C@H](O)[C@H]2O[C@H]2C[C@](C)(N)[C@H](O)[C@H](C)O2)Oc2ccc(cc2Cl)[C@H]1O [Vancomycin], the “Antibacterial Activity Gram-Positive S. aureus Clear Inhibition Zone” value [2] is reported as 7.00 ± 0.00 mm, the “Antibacterial Activity Gram-Positive S. aureus MID” value [2] is reported as 0.078 µg/Disk and the “Antibacterial Activity Gram-Negative K. pneumoniae Clear Inhibition Zone” value (Klebsiella pneumoniae) is reported as 7.33 ± 0.24 mm. For the same compound, the “Antibacterial Activity Gram-Negative K. pneumoniae MID” value (Klebsiella pneumoniae) was 0.078 µg/Disk.

With Gentamycin the “Antibacterial Activity Gram-Positive S. aureus Clear Inhibition Zone” value [2] was 7.67 ± 0.47 mm, the “Antibacterial Activity Gram-Positive S. aureus MID” value [2] was 0.078 µg/Disk and the “Antibacterial Activity Gram-Negative K. pneumoniae Clear Inhibition Zone” value (Klebsiella pneumoniae) was 7.33 ± 0.47 mm. The “Antibacterial Activity Gram-Negative K. pneumoniae MID” value (Klebsiella pneumoniae) was 0.078 µg/Disk.
